This note sets out measurements from article PMC11772392, “Host Plant Odour and Sex Pheromone are Integral to Mate Finding in Codling Moth” (Journal of Chemical Ecology, 2025).

SMILES strings stand for the structures.

The experiment deals with T1, CpomOR3 (Cydia pomonella, UniProt H9A5M3).
T1 construct: gene OR3; full-length ORF cloned in pUASg-HA.attB, expressed in Drosophila melanogaster ab3A olfactory neurons (pOr22a-Gal4ki empty neuron line); with Odorant receptor coreceptor (Drosophila melanogaster, endogenous in the ab3A neuron)
T1 sequence (H9A5M3 1-426): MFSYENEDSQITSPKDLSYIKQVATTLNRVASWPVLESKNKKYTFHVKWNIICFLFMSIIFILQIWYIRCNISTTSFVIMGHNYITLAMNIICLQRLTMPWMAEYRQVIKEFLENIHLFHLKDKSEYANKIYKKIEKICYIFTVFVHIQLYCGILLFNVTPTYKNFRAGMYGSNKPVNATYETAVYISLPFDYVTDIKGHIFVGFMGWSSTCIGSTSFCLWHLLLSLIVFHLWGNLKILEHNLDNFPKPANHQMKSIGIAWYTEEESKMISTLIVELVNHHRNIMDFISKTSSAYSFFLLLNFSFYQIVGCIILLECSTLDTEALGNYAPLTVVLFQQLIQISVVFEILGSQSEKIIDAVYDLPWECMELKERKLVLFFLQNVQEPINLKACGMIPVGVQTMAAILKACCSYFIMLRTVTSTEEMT
T1 sequence (Q9VNB5 1-486 partner): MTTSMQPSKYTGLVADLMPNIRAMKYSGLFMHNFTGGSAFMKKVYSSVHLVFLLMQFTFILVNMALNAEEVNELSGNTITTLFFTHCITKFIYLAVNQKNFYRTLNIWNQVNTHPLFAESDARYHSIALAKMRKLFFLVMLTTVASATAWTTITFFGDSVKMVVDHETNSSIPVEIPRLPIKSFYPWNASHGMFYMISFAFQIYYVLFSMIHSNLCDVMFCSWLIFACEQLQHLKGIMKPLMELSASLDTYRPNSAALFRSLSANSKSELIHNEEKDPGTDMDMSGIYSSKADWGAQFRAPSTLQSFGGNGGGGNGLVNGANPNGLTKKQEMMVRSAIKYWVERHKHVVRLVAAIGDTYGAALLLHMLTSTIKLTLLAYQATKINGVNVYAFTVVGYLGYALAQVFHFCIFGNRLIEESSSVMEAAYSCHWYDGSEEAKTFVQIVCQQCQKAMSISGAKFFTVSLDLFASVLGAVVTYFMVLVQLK
Briefly: GC-coupled single sensillum recording (GC-SSR), ab3A neuron. Particulars: pear ester eluting from apple fruit headspace on GC, dose not stated, n = 3; activation; synthetic pear ester dose response (1, 10, 25 ng) not given. The experiment is classed as cell-based. An excerpt:
GC-coupled single sensillum recording (GC-SSR), ab3A neuron on CpomOR3 | antennal sensilla expressing CpomOR3 began to respond at the retention time of pear ester

In turn, `CCCCC/C=C\C=C\C(=O)OCC` [pear ester, ethyl (E,Z)-2,4-decadienoate] came in with a spike frequency response of 12.9 ± 4.1 spikes/s.
